Experimental data reported in the Kinase Knowledgebase extract (Sharma et al. 2016).
Values after ≈ are worked out from the molar mass of the structure shown.

Legend:
EGFR (human) [1] = target: EGFR (human) (UniProt P00533)
MAPK14 [2] = target: MAPK14 (UniProt Q16539); test: Inhibition of MAPK14 Kinase Activity; details: for inhibition: concentration not given here
ROCK2 = ROCK2 (UniProt O75116); test: Inhibition of ROCK-II Kinase Activity; details: concentration not given here
MAPK14 (human) = MAPK14 (human) (UniProt Q16539); test: p38-alpha Kinase Inhibition; details: for activity: concentration not given here
Sequence of MAPK14 (human) (Q16539 whole entry, looked up): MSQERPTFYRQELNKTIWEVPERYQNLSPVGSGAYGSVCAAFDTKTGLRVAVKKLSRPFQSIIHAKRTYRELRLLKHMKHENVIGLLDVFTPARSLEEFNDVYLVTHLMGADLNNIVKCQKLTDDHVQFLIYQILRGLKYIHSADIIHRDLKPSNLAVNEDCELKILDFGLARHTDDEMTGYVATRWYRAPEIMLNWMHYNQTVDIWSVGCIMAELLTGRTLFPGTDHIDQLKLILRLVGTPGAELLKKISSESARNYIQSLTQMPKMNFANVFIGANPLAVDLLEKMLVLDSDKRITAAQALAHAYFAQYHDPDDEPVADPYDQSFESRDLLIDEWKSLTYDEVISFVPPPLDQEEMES

ROCK2 (rat) = ROCK2 (rat) (UniProt Q62868); test: ROCK-II Kinase Inhibition; details: concentration not given here
EGFR (human) [3] = target: EGFR (human) (UniProt P00533); remark: listed apart in the source
EGFR (murine) = EGFR (murine) (UniProt P00533); details: nih3t3
Sequence of EGFR (murine) (P00533 whole entry, looked up): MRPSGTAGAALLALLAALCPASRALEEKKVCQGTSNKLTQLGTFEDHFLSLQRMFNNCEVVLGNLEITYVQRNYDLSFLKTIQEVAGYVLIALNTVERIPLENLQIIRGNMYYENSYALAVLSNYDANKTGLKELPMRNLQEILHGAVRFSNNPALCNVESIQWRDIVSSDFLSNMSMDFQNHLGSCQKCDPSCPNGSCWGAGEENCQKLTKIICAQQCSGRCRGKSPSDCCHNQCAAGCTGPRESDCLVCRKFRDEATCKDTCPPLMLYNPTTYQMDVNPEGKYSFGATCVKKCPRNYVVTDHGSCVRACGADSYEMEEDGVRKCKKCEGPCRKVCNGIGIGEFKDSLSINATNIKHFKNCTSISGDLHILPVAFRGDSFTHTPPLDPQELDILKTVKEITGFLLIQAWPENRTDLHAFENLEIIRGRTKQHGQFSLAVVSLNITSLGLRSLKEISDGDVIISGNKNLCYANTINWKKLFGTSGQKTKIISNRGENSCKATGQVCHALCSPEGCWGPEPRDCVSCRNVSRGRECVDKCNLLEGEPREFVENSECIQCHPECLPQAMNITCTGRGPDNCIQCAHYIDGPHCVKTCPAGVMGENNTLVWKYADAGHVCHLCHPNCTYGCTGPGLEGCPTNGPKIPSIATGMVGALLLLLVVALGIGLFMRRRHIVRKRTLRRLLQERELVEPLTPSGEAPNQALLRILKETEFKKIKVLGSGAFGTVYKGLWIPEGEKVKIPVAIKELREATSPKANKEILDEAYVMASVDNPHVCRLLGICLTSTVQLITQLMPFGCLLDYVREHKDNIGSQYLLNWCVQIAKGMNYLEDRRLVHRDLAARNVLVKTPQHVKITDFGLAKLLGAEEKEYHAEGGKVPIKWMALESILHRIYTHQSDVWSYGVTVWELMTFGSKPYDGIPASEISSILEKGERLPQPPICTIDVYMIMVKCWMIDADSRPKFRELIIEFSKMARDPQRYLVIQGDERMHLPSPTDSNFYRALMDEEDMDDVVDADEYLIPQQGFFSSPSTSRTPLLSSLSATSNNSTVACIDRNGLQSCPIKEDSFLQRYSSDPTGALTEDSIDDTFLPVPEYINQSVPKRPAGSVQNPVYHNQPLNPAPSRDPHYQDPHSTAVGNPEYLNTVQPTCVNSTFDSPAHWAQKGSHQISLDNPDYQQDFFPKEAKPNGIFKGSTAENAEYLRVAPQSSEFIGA

EGFR [4] = target: EGFR (UniProt P00533); test: Inhibition of EGFr Enzyme
Sequence of EGFR (P00533 whole entry, looked up): as above

EGFR [5] = target: EGFR (UniProt P00533)
CDK2 [6] = target: CDK2 (UniProt P24941); test: Enzyme Assay
CDK2 (human) [7] = target: CDK2 (human) (UniProt P24941); test: Enzyme Assay
CDK2 (human) [8] = target: CDK2 (human) (UniProt P24941); test: Enzyme Assay; remark: listed apart in the source
CDK2 [9] = target: CDK2 (UniProt P24941); test: Enzyme Assay; remark: listed apart in the source
EGFR [10] = target: EGFR (UniProt P00533); remark: listed apart in the source
EGFR [11] = target: EGFR (UniProt P00533); remark: listed apart in the source
EGFR (mouse) [12] = target: EGFR (mouse) (UniProt P00533); details: balb/mk
EGFR (human) [13] = target: EGFR (human) (UniProt P00533); details: hn5
EGFR [14] = target: EGFR (UniProt P00533); remark: listed apart in the source
MAPK14 [15] = target: MAPK14 (UniProt Q16539); test: Inhibition of TNF-alpha Production
MAPK14 [16] = target: MAPK14 (UniProt Q16539); test: MAPK Kinase Inhibition
EGFR (human) [17] = target: EGFR (human) (UniProt P00533); details: a431
EGFR [18] = target: EGFR (UniProt P00533); details: balb/c 3t3
EGFR (mouse) [19] = target: EGFR (mouse) (UniProt P00533); details: Swiss 3T3
MAPK14 [20] = target: MAPK14 (UniProt Q16539)

Sequence of EGFR (human) (P00533 whole entry, looked up): as above
Sequence of MAPK14 (Q16539 whole entry, looked up): as the sequence (Q16539 whole entry, looked up) above

Clc1cccc(Nc2cncc(-c3cncc(NCCCN4CCCCC4)c3)n2)c1
IC50 (EGFR (human) [1]): > 100 µM

Clc1cccc(Nc2cncc(-c3cncc(NCCCc4ccncc4)c3)n2)c1
IC50 (EGFR (human) [1]): > 100 µM

CN(C)c1nc2c(Br)c(Br)c(Br)c(Br)c2[nH]1
inhibition (MAPK14 [2]): 15%
inhibition (ROCK2): 31%

COc1cc(OC)c(/C=C2/C(=O)Nc3ccccc32)c(OC)c1
activity (MAPK14 (human)): 86%
activity (ROCK2 (rat)): 96%

CCOc1cc2ncc(C#N)c(Nc3ccc(F)c(Cl)c3)c2cc1NC(=O)CC(CN(C)C)SCC(NC(=O)CC[C@@H](N)C(=O)O)C(=O)NCC(=O)O (some centres not stated)
IC50 (EGFR (human) [3]): 1.7 µg/mL (≈ 2.19 µM)

O=C1Nc2ccccc2/C1=C/c1ccccc1
IC50 (EGFR (murine)): > 100 µM

CN(C)c1cc2ncnc(Nc3cccc(Br)c3)c2cn1
IC50 (EGFR [4]): 0.09 nM
IC50 (EGFR [5]): 0.014 µM

O=C1Nc2ccccc2/C1=C/c1ccncc1
IC50 (EGFR (murine)): > 100 µM

O=C1Nc2ccccc2/C1=C1/Nc2ccccc2C1=O
IC50 (CDK2 [6]): 2.2 µM
IC50 (CDK2 (human) [7]): 2.2 µM
IC50 (CDK2 (human) [8]): 7.5 µM
IC50 (CDK2 [9]): 7.5 µM

NC(=O)c1ccc(-c2nc(-c3ccc4c(c3)OCCO4)c(-c3ccccn3)[nH]2)cc1
IC50 (MAPK14 (human)): 12 µM
activity (MAPK14 (human)): 56%
activity (ROCK2 (rat)): 96%

Brc1cccc(Nc2ncnc3cc4c(cc23)OCO4)c1
IC50 (EGFR [10]): 0.015 µM

Brc1c(Br)c(Br)c2[nH]nnc2c1Br
inhibition (MAPK14 [2]): -7%
inhibition (ROCK2): 9%

O=C1Nc2ccc(Cl)cc2/C1=C1/Nc2ccccc2C1=O
IC50 (CDK2 [6]): 0.75 µM
IC50 (CDK2 (human) [7]): 0.75 µM
IC50 (CDK2 (human) [8]): 0.55 µM
IC50 (CDK2 [9]): 0.55 µM

CNC(=O)N1CCN(Cc2ccnc(Nc3ncc(C#N)s3)c2C)CC1
IC50 (CDK2 [6]): 13.7 µM
IC50 (EGFR [11]): > 19.2 µM

COc1ccc(OC)c(/C=C2\C(=O)Nc3ccccc32)c1
IC50 (EGFR (murine)): 11 µM

O=C1/C(=C2\Nc3ccccc3C2=O)Nc2ccccc21
IC50 (CDK2 [6]): 70 µM
IC50 (CDK2 (human) [7]): 70 µM
IC50 (CDK2 (human) [8]): > 1000 µM
IC50 (CDK2 [9]): > 1000 µM

Clc1cccc(Nc2ncnc3[nH]c(-c4ccccc4)c(-c4ccccc4)c23)c1
IC50 (EGFR (mouse) [12]): > 50 µM

CS(=O)(=O)CCNCCCCOc1ccc2ncnc(Nc3ccc(F)c(Cl)c3)c2c1
IC50 (EGFR (human) [13]): 0.071 µM

C/C(O)=C(\C#N)C(=O)Nc1cc(Br)ccc1Br
IC50 (EGFR [14]): > 278 µM
Ki (EGFR [14]): 166 µM

CN1CC2CCC1CC2Nc1cc(-c2ccccc2Cl)c2c(c1)N(c1c(Cl)cccc1Cl)C(=O)NC2 (configuration not stated)
IC50 (MAPK14 [15]): 0.02 µM
IC50 (MAPK14 [2]): 0.0004 µM

Cc1cc(C)c(C)c(-c2cc3cnc(N)nc3nc2NC(=O)NC(C)(C)C)c1C
IC50 (MAPK14 [16]): > 50 µM

CC(C)(C)c1cc(C=C(C#N)C#N)cc(C(C)(C)C)c1O
IC50 (EGFR (human) [17]): 0.1 µM

COc1cc(OC)cc(-c2cc3cnc(N)nc3nc2NC(=O)NC(C)(C)C)c1
IC50 (MAPK14 [16]): > 50 µM

CC(C)(C)NC(=O)Nc1nc2nc(N)ncc2cc1-c1c(Cl)cccc1Cl
IC50 (MAPK14 [16]): 7.1 µM

Cc1c(-c2ccccc2)[nH]c2ncnc(Nc3cccc(Cl)c3)c12
IC50 (EGFR (mouse) [12]): > 50 µM

Clc1cccc(Nc2ncnc3c2C2CCCCC2N3)c1 (configuration not stated)
IC50 (EGFR [18]): 0.3 µM

CC(C)(C)c1cc(C=C(C#N)C(N)=S)cc(C(C)(C)C)c1
IC50 (EGFR (human) [17]): 20 µM

Cc1cccc(Nc2ncnc3cc(NCCCN4CCCCC4)ncc23)c1
IC50 (EGFR [4]): 5.6 nM

Cc1nc2cc3nc(-c4cccs4)cnc3cc2n1C
IC50 (EGFR (mouse) [19]): > 30 µM

C#Cc1cccc(Nc2ncnc3ccc(OCCCCNCCS(C)(=O)=O)cc23)c1
IC50 (EGFR (human) [13]): 0.045 µM

CNc1cc2ncnc(Nc3cccc(Br)c3)c2cn1
IC50 (EGFR [4]): 0.13 nM
IC50 (EGFR [5]): 0.016 µM

COc1cc2ncc(C#N)c(Nc3ccc(Sc4nc(-c5ccccc5)cs4)c(Cl)c3)c2cc1C(C(N)=O)C(CN(C)C)N(C)C (configuration not stated)
IC50 (EGFR (human) [3]): 3.2 µg/mL (≈ 4.76 µM)

CCOC(=O)C(C#N)=Cc1cc(C(C)(C)C)cc(C(C)(C)C)c1
IC50 (EGFR (human) [17]): 20 µM

Cc1nc2cc3nc(-c4ccccc4)cnc3cc2n1C
IC50 (EGFR (mouse) [19]): > 30 µM

COc1ccc2c(Nc3cccc(Br)c3)ncnc2c1OC
IC50 (EGFR [10]): > 10 µM

Brc1cccc(Nc2ncnc3c2C2CCCCC2N3)c1 (configuration not stated)
IC50 (EGFR [18]): 0.5 µM

Clc1cccc(Nc2ncnc3[nH]c4ccccc4c23)c1
IC50 (EGFR [18]): 0.1 µM

Cc1cc2ncc(-c3cccs3)nc2cc1C
IC50 (EGFR (mouse) [19]): > 30 µM

COCC(=O)NCCn1cnc(-c2ccc(F)cc2)c1-c1ccnc(OCCC2CCCCC2)n1
IC50 (MAPK14 [20]): < 50 µM

CNC(=O)N1CCN(Cc2ccnc(Nc3ncc(C#N)s3)c2)CC1
IC50 (CDK2 [6]): 3.94 µM
IC50 (EGFR [11]): > 19.2 µM

COc1ccc2ncnc(Nc3cccc(Br)c3)c2c1OC
IC50 (EGFR [10]): 1.37 µM

Cc1cccc(Nc2ncnc3[nH]c4c(c23)CCCC4)c1
IC50 (EGFR (mouse) [12]): > 50 µM
